In brackets after ≈: the same amount, converted by molar mass.
Legend:
[1] = Rapid antimicrobial susceptibility testing (MIC) by flatbed-scanner imaging of doubling dilutions in a well plate, cefepime; type: cell-based
Source text: The dispensing technology may use well plate 205, which may be a standard 96-, 384-, or 1536-well microtiter plate. Well plate 205 contains doubling dilutions of antimicrobials. Any antimicrobials can be used. Antibiotics are mentioned as an example of an antimicrobial, but any antimicrobial or other treatment agent (e.g. antifungal, antiviral, anti-parasitic) can be used unless context clearly dictates otherwise. The doubling dilution series can be prepared at the time of use, or plates with doubling dilutions can be pre-made and stored with lyophilized antibiotics or with antibiotics in broth that are frozen and thawed before use. […] The positive blood culture broth or dilutions of the positive blood culture broth can be added to the wells using any of several liquid handling devices or manually or through use of an inkjet printer 210 which we determined can quantitatively print out positive blood culture broth.
(§1) Typically positive blood-culture broth has organisms at 5×10^9 colony-forming units per mL. In our experiments, we determined that this could be diluted 5-fold in sterile water and 0.3% tween-20 and this dilution dispensed at 250 nl per well to create a starting inoculum of approximately 2.5×10^7 per mL in wells in a 384 well plate containing a volume of 10 μl. […]

E. coli = assay: Rapid antimicrobial susceptibility testing (MIC) by flatbed-scanner imaging of doubling dilutions in a well plate, gentamicin; type: cell-based; set-up: unit not given here; settings: 37° C.
Source text: The dispensing technology may use well plate 205, which may be a standard 96-, 384-, or 1536-well microtiter plate. Well plate 205 contains doubling dilutions of antimicrobials. Any antimicrobials can be used. Antibiotics are mentioned as an example of an antimicrobial, but any antimicrobial or other treatment agent (e.g. antifungal, antiviral, anti-parasitic) can be used unless context clearly dictates otherwise. The doubling dilution series can be prepared at the time of use, or plates with doubling dilutions can be pre-made and stored with lyophilized antibiotics or with antibiotics in broth that are frozen and thawed before use. In embodiments, 50 μl of broth are added to wells in well plate 205 and desired two-fold dilutions of antibiotics are added to wells using inkjet printing technology 210 as described in WO 2017/218202 A1, the entire contents of which are incorporated by reference for all purposes. In other embodiments, antibiotics can be added either manually or with any of several suitable liquid handling devices. Positive blood culture broth is then added to the microtiter wells. The positive blood culture broth or dilutions of the positive blood culture broth can be added to the wells using any of several liquid handling devices or manually or through use of an inkjet printer 210 which we determined can quantitatively print out positive blood culture broth.
as §1
We have made use of a CCD flatbed scanner to scan plates. In our example, the plates are incubated in a separate incubator and placed on a plate bed scanner at different time points for reading. Using a flatbed scanner, we have determined that accurate AST results can be obtained with incubation times of 1.5 hours or less. […]

## CO/N=C(\C(=O)N[C@@H]1C(=O)N2C(C(=O)[O-])=C(C[N+]3(C)CCCC3)CS[C@H]12)c1csc(N)n1 [cefepime]
[1]; 3 hours of incubation (graph 630)
  MIC: 31 µg/mL (≈ 64.5 µM)
[1]; 4 hours of incubation (graph 640)
  MIC: 31 µg/mL (≈ 64.5 µM)

## gentamicin
E. coli; 2 hours of incubation (graph 520)
  MIC: 1.0
E. coli; 3 hours of incubation (graph 530)
  MIC: 1.0
E. coli; 4 hours of incubation (graph 540)
  MIC: 1.0
